We go through two compounds from BindingDB's records for doi:10.1038/sj.bjp.0701860 (Universit&Aagrove, 1998).

As a reminder, the pKi is the negative decadic logarithm of the Ki, by convention in mol/L. The low end stands for a high Ki, the high end for a low Ki.

pKi: −log10 of the molar value.

The target of this test is Melatonin receptor type 1A (Homo sapiens, UniProt P48039).
Melatonin receptor type 1A, sequence (P48039 whole entry): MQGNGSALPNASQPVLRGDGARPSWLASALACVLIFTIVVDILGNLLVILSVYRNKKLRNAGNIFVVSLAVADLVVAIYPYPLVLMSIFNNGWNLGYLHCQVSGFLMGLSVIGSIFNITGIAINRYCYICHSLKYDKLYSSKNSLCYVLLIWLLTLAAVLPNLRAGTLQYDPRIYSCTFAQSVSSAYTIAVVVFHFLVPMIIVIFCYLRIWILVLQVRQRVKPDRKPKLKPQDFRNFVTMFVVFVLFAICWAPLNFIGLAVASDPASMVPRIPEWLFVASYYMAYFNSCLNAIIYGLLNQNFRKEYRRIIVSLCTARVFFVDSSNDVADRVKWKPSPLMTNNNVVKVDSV

`CC(=O)n1cc(CCN)c2cc(O)ccc21` [NSC_260803]: the pKi was 6.32.

Regarding `COc1ccc2[nH]c(-c3ccccc3)c(CCNC(C)=O)c2c1` [Melatonin,2-Phenyl], the pKi was 10.70. This pKi lies 4.38 log units higher than the previous one.
